Measured values as given in US7396837B2, “Antitumoral analogs of lamellarins” (Pharma Mar, S.A.U., priority 2002, dated 2008).
Entries after “also recorded” stand apart in the source; their conditions may differ. Where two headings read alike, the source gives them in different places.

Key:
[1] = tested on: HT-29; assay: SRB colorimetric cell growth inhibition assay, HT-29; assay type: cell-based; settings: Homo sapiens; for GI50: GI=growth inhibition, read-out: GI50 HT-29; for CC50: LC=cell killing (cytotoxic effect); for IC (TGI): TGI=total growth inhibition (cytostatic effect), read-out: TGI HT-29
Summary of the method: (§1)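 Sulforhodamine B colorimetric readout measured cell growth and viability after continuous compound exposure of human cancer cell lines in 96-well plates. Triplicate wells gave mean ± SD, from which growth inhibition (GI), cytostatic total growth inhibition (TGI) and cytotoxic cell killing (LC) were calculated.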

[2] = tested on: PANC-1; assay: SRB colorimetric cell growth inhibition assay, PANC-1; assay type: cell-based; settings: Homo sapiens; for GI50: GI=growth inhibition, read-out: GI50 PANC-1; for CC50: LC=cell killing (cytotoxic effect); for IC (TGI): TGI=total growth inhibition (cytostatic effect), read-out: TGI PANC-1
Summary of the method: as §1

[3] = tested on: IGROV-ET; assay: SRB colorimetric cell growth inhibition assay, IGROV-ET (ET-743 resistant); assay type: cell-based; settings: Homo sapiens; for GI50: GI=growth inhibition, read-out: GI50 IGROV-ET; for CC50: cell killing (cytotoxic effect); for IC (TGI): total growth inhibition (cytostatic effect), read-out: TGI IGROV-ET
Summary of the method: as §1

[4] = tested on: A-549; assay: SRB colorimetric cell growth inhibition assay, A-549; assay type: cell-based; settings: Homo sapiens; for GI50: GI=growth inhibition, read-out: GI50 A-549; for CC50: LC=cell killing (cytotoxic effect); for IC (TGI): TGI=total growth inhibition (cytostatic effect), read-out: TGI A-549
Summary of the method: as §1

[5] = target: T1, human topoisomerase I (Homo sapiens, UniProt P11387); assay: Topoisomerase I DNA relaxation assay (supercoiled plasmid DNA); assay type: biochemical; settings: supercoiled plasmid DNA, each compound tested at 1 μM, agarose gel with ethidium bromide
T1 sequence (P11387 1-765): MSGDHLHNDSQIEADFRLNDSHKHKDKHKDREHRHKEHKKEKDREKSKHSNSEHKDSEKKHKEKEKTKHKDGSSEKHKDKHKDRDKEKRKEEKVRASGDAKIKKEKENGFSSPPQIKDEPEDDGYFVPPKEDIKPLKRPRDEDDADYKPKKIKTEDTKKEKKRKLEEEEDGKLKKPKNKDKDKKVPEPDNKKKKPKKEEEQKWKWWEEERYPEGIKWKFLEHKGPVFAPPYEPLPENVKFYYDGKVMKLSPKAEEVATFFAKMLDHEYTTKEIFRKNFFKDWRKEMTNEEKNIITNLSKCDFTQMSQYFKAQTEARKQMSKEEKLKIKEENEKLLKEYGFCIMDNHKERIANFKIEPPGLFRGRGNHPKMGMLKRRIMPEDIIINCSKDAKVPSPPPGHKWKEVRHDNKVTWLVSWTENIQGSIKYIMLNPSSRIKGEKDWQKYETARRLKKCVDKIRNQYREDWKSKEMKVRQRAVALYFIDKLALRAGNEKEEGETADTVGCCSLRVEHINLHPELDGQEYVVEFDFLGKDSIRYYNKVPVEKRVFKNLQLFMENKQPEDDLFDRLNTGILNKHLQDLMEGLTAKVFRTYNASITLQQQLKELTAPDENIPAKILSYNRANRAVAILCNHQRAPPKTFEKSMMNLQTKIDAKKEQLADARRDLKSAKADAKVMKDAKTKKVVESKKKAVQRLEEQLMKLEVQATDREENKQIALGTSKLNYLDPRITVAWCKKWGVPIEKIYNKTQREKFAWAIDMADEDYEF
Summary of the method: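 Test compounds (1 μM each) were present during topoisomerase I relaxation of supercoiled plasmid DNA. Relaxation was assessed on ethidium bromide-stained agarose gels.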

[6] = tested on: LoVo-Dox; assay: SRB colorimetric cell growth inhibition assay, LoVo-Dox (MDR); assay type: cell-based; settings: Homo sapiens; for GI50: GI=growth inhibition, read-out: GI50 LOVO-DOX; for CC50: LC=cell killing (cytotoxic effect); for IC (TGI): TGI=total growth inhibition (cytostatic effect), read-out: TGI LOVO-DOX
Summary of the method: as §1

[7] = tested on: SK-BR-3; assay: SRB colorimetric cell growth inhibition assay, SK-BR-3; assay type: cell-based; settings: Homo sapiens; for GI50: GI=growth inhibition, read-out: GI50 SK-BR-3; for CC50: cell killing (cytotoxic effect); for IC (TGI): total growth inhibition (cytostatic effect), read-out: TGI SK-BR-3
Summary of the method: as §1

[8] = tested on: SK-MEL-28; assay: SRB colorimetric cell growth inhibition assay, SK-MEL-28; assay type: cell-based; settings: Homo sapiens; for GI50: GI=growth inhibition, read-out: GI50 MEL-28; for CC50: cell killing (cytotoxic effect); for IC (TGI): total growth inhibition (cytostatic effect), read-out: TGI MEL-28
Summary of the method: as §1

[9] = tested on: LoVo; assay: SRB colorimetric cell growth inhibition assay, LoVo; assay type: cell-based; settings: Homo sapiens, LoVo; for GI50: GI=growth inhibition, read-out: GI50 LOVO; for CC50: LC=cell killing (cytotoxic effect); for IC (TGI): TGI=total growth inhibition (cytostatic effect), read-out: TGI LOVO
Summary of the method: as §1

[10] = tested on: SKOV-3; assay: SRB colorimetric cell growth inhibition assay, SKOV-3; assay type: cell-based; settings: Homo sapiens; for GI50: SK-OV-3, SKOV-3, GI=growth inhibition, read-out: GI50 SKOV-3; for IC (TGI): total growth inhibition (cytostatic effect), read-out: TGI SKOV-3
Summary of the method: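 Growth inhibition (GI), total growth inhibition (TGI, cytostatic) and lethal concentration (LC, cytotoxic) come from an SRB-based colorimetric measure of growth and viability. Data are triplicate-well means ± SD.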

[11] = tested on: IGROV; assay: SRB colorimetric cell growth inhibition assay, IGROV; assay type: cell-based; settings: Homo sapiens, IGROV; for GI50: GI=growth inhibition, read-out: GI50 IGROV; for CC50: cell killing (cytotoxic effect); for IC (TGI): total growth inhibition (cytostatic effect), read-out: TGI IGROV
Summary of the method: as §1

[12] = tested on: K-562; assay: SRB colorimetric cell growth inhibition assay, K-562; assay type: cell-based; settings: Homo sapiens; for GI50: GI=growth inhibition, read-out: GI50 K-562; for CC50: LC=cell killing (cytotoxic effect); for IC (TGI): TGI=total growth inhibition (cytostatic effect), read-out: TGI K-562
Summary of the method: as §1

[13] = tested on: LNCaP; assay: SRB colorimetric cell growth inhibition assay, LNCaP; assay type: cell-based; settings: Homo sapiens, LNCaP; for GI50: GI=growth inhibition, read-out: GI50 LN-caP; for CC50: cell killing (cytotoxic effect); for IC (TGI): total growth inhibition (cytostatic effect), read-out: TGI LN-caP
Summary of the method: as §1

[14] = tested on: DU-145; assay: SRB colorimetric cell growth inhibition assay, DU-145; assay type: cell-based; settings: Homo sapiens; for GI50: GI=growth inhibition, read-out: GI50 DU-145; for CC50: cell killing (cytotoxic effect); for IC (TGI): total growth inhibition (cytostatic effect), read-out: TGI DU-145
Summary of the method: as §1

Row | Structure (SMILES) | GI50 ([1]; HT-29, HT-29) | IC (TGI) ([1]; HT-29, HT-29) | GI50 ([2]; PANC-1, PANC-1) | IC (TGI) ([2]; PANC-1, PANC-1) | GI50 ([3]; IGROV-ET) | IC (TGI) ([3]; IGROV-ET) | GI50 ([4]; A549, A-549) | IC (TGI) ([4]; A549, A-549) | stimulation of DNA cleavage by topoisomerase I / inhibition of topoisomerase I (nicked DNA band) in DNA relaxation assay [5] | GI50 ([6]; LOVO-DOX) | IC (TGI) ([6]; LOVO-DOX) | GI50 ([7]; SK-BR-3, SK-BR-3) | IC (TGI) ([7]; SK-BR-3, SK-BR-3) | GI50 ([8]; SK-MEL-28, MEL-28) | IC (TGI) ([8]; SK-MEL-28, MEL-28) | GI50 [9] | IC (TGI) [9] | GI50 [10] | IC (TGI) ([10]; SK-OV-3, SKOV-3) | GI50 [11] | further results
1 | COc1cc(-c2c3c4cc(OC)c(OC(=O)[C@@H](N)C(C)C)cc4oc(=O)c3n3ccc4cc(OC(=O)[C@@H](N)C(C)C)c(OC)cc4c23)ccc1OC(=O)[C@@H](N)C(C)C [Compound 36] | 1510 nM | 4080 nM | 169 nM | 1130 nM | 76.5 nM | 540 nM | 32.8 nM | 154 nM | marked inhibition of topoisomerase I; also recorded: stimulated DNA cleavage by the enzyme | 145 nM | 525 nM | 39.6 nM | 221 nM | 31.9 nM | 181 nM | 158 nM | 321 nM | 39.2 nM | 297 nM | 46.9 nM | CC50 ([1]; HT-29, HT-29, read-out: LC50 HT-29): 8780 nM; CC50 ([2]; PANC-1, PANC-1, read-out: LC50 PANC-1): 8780 nM; CC50 ([3]; IGROV-ET, read-out: LC50 IGROV-ET): 8780 nM; CC50 ([4]; A549, A-549, read-out: LC50 A-549): 1690 nM; CC50 ([6]; LOVO-DOX, read-out: LC50 LOVO-DOX): 8780 nM; CC50 ([7]; SK-BR-3, SK-BR-3, read-out: LC50 SK-BR-3): 2940 nM; CC50 ([8]; SK-MEL-28, MEL-28, read-out: LC50 MEL-28): 2700 nM; CC50 ([9]; read-out: LC50 LOVO): 652 nM; LC50 (concentration causing 50% net cell killing) ([10]; SK-OV-3, SKOV-3, cell killing (cytotoxic effect), read-out: LC50 SKOV-3): 5890 nM; CC50 ([11]; read-out: LC50 IGROV): 7950 nM; IC (TGI) [11]: 409 nM; GI50 ([12]; K562, K-562): 9.48 nM; CC50 ([12]; K562, K-562, read-out: LC50 K-562): 5700 nM; IC (TGI) ([12]; K562, K-562): 188 nM; GI50 ([13]; LN-caP): 42.8 nM; CC50 ([13]; LN-caP, read-out: LC50 LN-caP): 424 nM; IC (TGI) ([13]; LN-caP): 156 nM; GI50 ([14]; DU-145, DU-145): 10.8 nM; CC50 ([14]; DU-145, DU-145, read-out: LC50 DU-145): 668 nM; IC (TGI) ([14]; DU-145, DU-145): 38.3 nM
2 | COc1cc(-c2c3n(c4c(=O)oc5cc(OC(=O)[C@H](N)C(C)C)c(OC)cc5c24)CCc2cc(OC(=O)[C@H](N)C(C)C)c(OC)cc2-3)ccc1OC(=O)[C@H](N)C(C)C [Compound 32] | 2660 nM | 5300 nM | 316 nM | 1380 nM | 666 nM | 3010 nM | 1530 nM | 3340 nM | No effect | 671 nM | 2420 nM | 1300 nM | 3190 nM | 1350 nM | 2870 nM | 392 nM | 1650 nM | 1860 nM | 3670 nM | 561 nM | CC50 ([1]; HT-29, read-out: LC50 HT-29, HT-29): 8760 nM; CC50 ([2]; PANC-1, read-out: LC50 PANC-1, PANC-1): 8760 nM; CC50 ([3]; read-out: LC50 IGROV-ET, IGROV-ET): 8760 nM; CC50 ([4]; A549, read-out: LC50 A-549, A-549): 7330 nM; CC50 ([6]; read-out: LC50 LOVO-DOX, LOVO-DOX): 8250 nM; CC50 ([7]; SK-BR-3, read-out: LC50 SK-BR-3, SK-BR-3): 7820 nM; CC50 ([8]; SK-MEL-28, read-out: LC50 MEL-28, MEL-28): 6130 nM; CC50 ([9]; read-out: LC50 LOVO, LOVO): 6310 nM; LC50 (concentration causing 50% net cell killing) ([10]; SK-OV-3, read-out: LC50 SKOV-3): 7270 nM; CC50 ([11]; read-out: LC50 IGROV, IGROV): 6120 nM; IC (TGI) [11]: 2060 nM; GI50 ([12]; K562, K-562): 673 nM; IC (TGI) ([12]; K562, K-562): 2430 nM; CC50 ([12]; K562, read-out: LC50 K-562, K-562): 8310 nM; GI50 ([13]; LN-caP): 429 nM; IC (TGI) ([13]; LN-caP): 1670 nM; CC50 ([13]; read-out: LC50 LN-caP, LN-caP): 5080 nM; GI50 ([14]; DU-145, DU-145): 111 nM; IC (TGI) ([14]; DU-145, DU-145): 309 nM; CC50 ([14]; DU-145, read-out: LC50 DU-145, DU-145): 857 nM
